The values below come from patent US6482851B1, “Synthesis of dysidiolide and uses thereof” (Sloan-Kettering Institute for Cancer Research, priority 1998, dated 2002).

Assay [1] addresses T1, human cdc25A protein phosphatase (Homo sapiens, UniProt P30304).
T1 sequence (P30304 1-524): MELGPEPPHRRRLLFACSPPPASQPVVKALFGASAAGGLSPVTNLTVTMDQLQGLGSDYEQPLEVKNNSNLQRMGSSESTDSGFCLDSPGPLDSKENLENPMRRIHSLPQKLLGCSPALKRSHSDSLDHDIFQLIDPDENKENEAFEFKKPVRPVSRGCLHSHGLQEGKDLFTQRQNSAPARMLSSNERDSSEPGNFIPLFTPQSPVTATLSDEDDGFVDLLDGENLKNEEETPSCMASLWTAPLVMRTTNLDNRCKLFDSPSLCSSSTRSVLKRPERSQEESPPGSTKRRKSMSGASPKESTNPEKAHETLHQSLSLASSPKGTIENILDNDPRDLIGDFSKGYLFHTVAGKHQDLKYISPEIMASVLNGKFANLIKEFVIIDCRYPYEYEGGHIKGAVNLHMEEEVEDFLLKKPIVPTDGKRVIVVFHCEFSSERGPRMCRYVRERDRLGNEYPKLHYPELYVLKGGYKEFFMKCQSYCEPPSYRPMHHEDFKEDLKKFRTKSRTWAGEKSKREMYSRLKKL
To be noted: cited from earlier work.

Another assay concerns human tumor cell lines. Nature of the assay: anchorage-dependent growth of human tumor cell lines. Format: cell-based. Here is the method: (B) Effect of dysidiolide on anchorage-dependent growth of human tumor cell lines. Cells were grown in multiwell plates and treated with either various drug concentrations or with dimethylsulfoxide (vehicle control). Cell number was determined and the inhibitory concentration to induce 50% growth inhibition (IC50) was determined. (C) Furthermore, dysidiolide inhibited the growth of immortalized human mammary epithelial cells transformed by either the oncogene ras, the receptor tyrosine kinase Neu, or both agents. Again, the IC50 for growth inhibition was in the low μM range (IC50 −3 μM dysidiolide).
In summary, the synthetic dysidiolide is an active drug in human tumor cell lines. It induces cytotoxicity, as detected by loss of Trypan blue exclusion and by the appearance of cells containing fragmented DNA via FACS analysis. […] Dysidiolide has the potential to be a cell cycle-targeted drug, which could be used alone or in combination with other treatments. In this regard, it may sensitize cells for DNA damaging treatments (i.e. act as a radiosensitizer). […] Cell lines derived from tumors of diverse origins were affected similarly.

SMILES strings stand for the structures.

As to `C=C(C)CCC[C@@]1(C)CCC[C@H]2C1=CC[C@H](C)[C@]2(C)C[C@H](O)C1=CC(=O)O[C@@H]1O` (racemic) [dysidiolide], the “inhibition of human cdc25A protein phosphatase” value in assay [1] is recorded as “potent inhibitor”. The “cross-resistance with vinblastine or doxorubicin (MDR phenotype)” value with human tumor cell lines (MCF7 vs. MCF/Adr and CEM vs. CEM/VBL100) was “no cross-resistance”. In addition, in the assay with human tumor cell lines (a number of human tumor cancer lines, read-out: IC50 for growth inhibition of human tumor cancer lines), the IC50 – broadly, the concentration needed to halve the response being measured – lay within 500 to 4500 nM.
